Consider six compounds from patent US20070207120A1, “Selective Killing Of Cancer Cells By Induction Of Acetyltransferase Via Tnf-Alpha And Il-6” (priority 2004, published 2007).

Format in all cases: cell-based, human
In one assay the test system is HEK 293 cells. In words: Apoptosis (annexin V) and attached cell number after cytokine treatment. The note with it: HEK 293 attached cells; 24 hours after addition of TNFα and 80M2. How it is done:
Cells were treated with Interleukin 6 (20 ng/ml) for 24 hours, followed by addition of antibody 80M2 (1 μg/ml), which modulates TNFα receptor 2, and TNFα (10 ng/ml). TNFα was added to the cell culture medium 30 minutes after addition of 80M2. All agents were added to the cell culture medium in liquid form. Cells were harvested after the indicated number of days of treatment, where ‘time zero’ corresponds to the point of addition of Interleukin 6.
Cells were assayed for apoptosis by Annexin V staining (Oncogene, Annexin V-FITC or Annexin V-Biotin apoptosis detection kit) and TUNEL assay (BD Biosciences, ApoAlert DNA fragmentation assay kit). Cells were assayed for Annexin V and TUNEL assay by flow cytometry, according to manufacturer's instructions. Attached cells were harvested and counted using a haemocytometer to give total attached cell number.
We examined the cell fate outcome of upregulating MCM3AP by cytokine treatment in HEK 293 cells. Treatment of HEK 293 cells with the same combination of cytokines that upregulates MCM3AP induces cell death by apoptosis (FIG. 4). Cells were treated with IL6 for 24 hours, followed by addition of TNFα and antibody 80M2. Attached cells were assayed for apoptosis and total cell number 24 hours and 36 hours later respectively.

The next assay concerns MCM3AP. In words: Western blot of MCM3AP expression after cytokine treatment. The note with it: HEK 293 cells; IL6 20 ng/ml, 24 hours later TNFα 10 ng/ml and 80M2 1 μg/ml; following three days. The procedure: HEK 293 cells (ATCC number CRL-1573) and Hs68 cells (ATCC number CRL-1635) were cultured as monolayers in 10% foetal calf serum in Dulbecco's minimal essential medium at 37° C. in 10% or 5% CO2 respectively, according to recommendations by the American Tissue Culture Collection. Stable cell lines of HEK 293 cells expressing inducible wild-type or mutant MCM3AP were made by stable transfection of vectors previously described by Takei et al. (2,3). Expression of MCM3AP was induced in these stable cell lines by treatment with doxycycline.
Exponentially growing cells were harvested and fractionated into soluble and structure-bound fractions. Cells were harvested by scraping adherent cells, pelleted by centrifugation at 200 g for 4 minutes and washed in cold PBS. The cell pellet was resuspended in cold hypotonic buffer (10 mM HEPES-KOH pH 7.3, 5 mM KCl, 1.5 mM MgCl2, 1 mM DTT, 1% NP40 and protease inhibitors) and incubated on ice for 15 minutes. Cells were centrifuged at 10,000 rpm for 5 minutes and the supernatant stored at −80° C. as the soluble protein fraction. […]
Samples were separated by 7.5% SDS-PAGE and transferred to PVDF membrane at a constant voltage of 10V for 1 hour. […] The bound antibodies were detected with peroxidase-conjugated secondary antibody (Amersham Biosciences) and protein bands visualised by the […] method using ECL or ECLplus (Amersham Biosciences). […]
(In general: In western blotting, separated proteins are transferred to a membrane and probed.)

Assay [1] has as its system transformed WI38 VA13 cells. In words: Cytokine and deacetylase inhibitor treatment, transformed cells. The note with it: for efficacy in (selective) cell killing of transformed cells: alone and in combination with cytokine treatment, butyric acid 5 mM, TSA, CBHA 2.5 μg/ml, SAHA 5 μg/ml. The procedure: (§1) Human cells WI38 (ATCC number CCL-75), WI38 VA13 (ECACC number 85062512), SaOS2 (ECACC number 89050205), U20S (ATCC number HTB-96), HeLa (CCL-2), HEK 293 (ATCC number CRL-1573) and Hs68 (ATCC number CRL-1635) were obtained from ATCC, ECACC or CR-UK cell services. All cells were cultured as monolayers in 10% foetal bovine serum in Dulbecco's minimal essential medium at 37° C. in 5% CO2, except SaOS2 cells which were cultured in McCoy's 5a medium supplemented with 1.5 mM L-glutamine and 15% foetal bovine serum. VA13 cells are WI38 primary fibroblasts transformed with SV40 virus and therefore share the same genetic background. To measure cell viability and total cell number, cells in suspension and adherent cells were collated and analysed by resuspending with a known concentration of CaliBRITE unlabelled beads (Becton Dickinson) plus propidium iodide and counting the number of live and dead cells per 3000 beads using a FACSCalibur flow cytometer (Becton Dickinson). Alternatively, an automated trypan blue assay using a Vi-Cell XR Cell Viability Analyzer (Beckman Coulter) was employed. Cells were treated with Interleukin 6 (20 ng/ml) for 24 hours, followed by addition of antibody 80M2 (1 μg/ml), which modulates TNFα receptor 2, and TNFα (10 ng/ml). TNFα was added to the cell culture medium 30 minutes after addition of 80M2. […] All agents were added to the cell culture medium in liquid form. […] For cytokine treatment in combination with deacetylase inhibitors, cells were harvested and counted 48 hours after addition of deacetylase inhibitor.

A further assay has as its system normal WI38 cells. In words: Cytokine and deacetylase inhibitor treatment, normal cells. The note with it: for effect on / killing of normal WI38 cells: TSA, CBHA 2.5 μg/ml; for cell death in normal cells: in combination with cytokine treatment (TSA 400 nM; SAHA 5 μg/ml). How it is done:
as §1

On to TNFα, for which the “apoptosis (annexin-V staining)” value in the assay on HEK 293 cells is recorded as “markedly reduced”. Moreover, in the assay with MCM3AP, the “MCM3AP protein expression (western blot)” value is “does not stimulate MCM3AP significantly”.
On to `CCCC(=O)O` [butyric acid], for which, in assay [1], the “efficacy in (selective) cell killing of transformed cells” value is “least effective”.
For IL6: cytokine interleukin-6, the “MCM3AP protein expression (western blot)” value in the assay on MCM3AP was “does not stimulate MCM3AP significantly”.
For the compound `CC(/C=C/C(=O)NO)=C\[C@@H](C)C(=O)c1ccc(N(C)C)cc1` [TSA, trichostatin A], the “live cell number over time” value in the assay on normal WI38 cells (400 nM TSA in combination with cytokine treatment, compare with t=0 value) is reported as “reduction in live cell number”. In the assay with normal WI38 cells, the “effect on / killing of normal WI38 cells” value is on record as “minimal effect” and the “cell death in normal cells” value is roughly 20%. Also, the “effect of TSA at lower concentrations” value in assay [1] (100 nM, 200 nM, 400 nM TSA) is “concentration dependent”. In assay [1], the “efficacy in (selective) cell killing of transformed cells” value was “efficient in selectively killing transformed cells”. Moreover, the transformed cells killed in assay [1] (three days of cytokine treatment in combination with deacetylase inhibitor (TSA 400 nM; CBHA 2.5 μg/ml; SAHA 5 μg/ml)) was 80-90%.
`O=C(CCCCCCC(=O)Nc1ccccc1)NO` [SAHA, suberoylanilide hydroxamic acid]: the “cell death in normal cells” value in the assay on normal WI38 cells is recorded as roughly 40%.
Consider `O=C(/C=C/c1cccc(C(=O)NO)c1)NO` [CBHA, cinnamic acid bishydroxamic acid], for which the “effect on / killing of normal WI38 cells” value in the assay on normal WI38 cells is recorded as “did not kill primary WI38 cells above background levels”.
